According to publication PMC3050021 (Cancer cell, 2010):
“Also recorded” adds a separate entry of the source. Residues, ends and D or L forms follow the SMILES beside them. *: point of attachment. Cbz = O=C(OCc1ccccc1)*

Legend:
[1] = tested on: p53-HDMX complex (JEG-3 cells); test: Anti-HDMX immunoprecipitation, p53 western, JEG-3; format: cell-based, human
[2] = tested on: HCT116 cells deficient in p53; test: Cell viability HCT116 deficient in p53; format: cell-based; conditions: 0.3–20 µM, 24 h, CellTiter-Glo; genetic deletion of p53; Figure 3F, 3G
SJSA-1 cells = test: Cell viability SJSA-1; format: cell-based; conditions: 0.3–20 µM, 24 h, CellTiter-Glo; HDM2-overexpressing osteosarcoma; Figure 3A
A431 cells (R273H p53) = test: Cell viability A431; format: cell-based; conditions: 0.3–20 µM, 24 h, CellTiter-Glo; R273H p53 mutation
JEG-3 cells = test: Cell viability JEG-3; format: cell-based, human; conditions: 0.3–20 µM, 24 h, CellTiter-Glo; HDMX-overexpressing choriocarcinoma; Figure 3C
SJSA-X cells [3] = test: Combination / synergy study, SJSA-X; format: cell-based; conditions: SJSA-X (induced HDMX expression in isogenic SJSA-1), 0.5–20 µM; Figure 7G
HDM2 = conditions: ref Vassilev et al., 2004; cited from earlier work
MCF-7 cells [4] = conditions: ref Wade et al., 2008; cited from earlier work
[5] = tested on: p53-HDMX complex (MCF-7 cells); test: Anti-HDMX immunoprecipitation, p53 western, MCF-7; format: cell-based; conditions: Nutlin-3 20 µM alone or with 5 or 20 µM SAH-p53-8, 10 µM MG-132, 6 h, Figure 7A
[6] = tested on: caspase-3/7 (JEG-3 cells); test: Caspase-3/7 activation, JEG-3; format: cell-based, human; conditions: 0.3–10 µM, 12 h, Caspase-3/7-Glo, Figure 5B
[7] = tested on: WS1 normal human fibroblasts; test: Cell viability WS1 normal fibroblasts; conditions: 0.3–20 µM, 24 h, CellTiter-Glo; Figure 3I
MCF-7 cells [8] = test: Cell viability MCF-7; format: cell-based; conditions: 0.3–20 µM, 24 h, CellTiter-Glo; HDM2- and HDMX-expressing breast cancer; Figure 3A–E
[9] = ref Vassilev et al., 2004; cited from earlier work
SJSA-X cells [10] = test: Cell viability SJSA-X; format: cell-based; conditions: 0.3–20 µM, 24 h, CellTiter-Glo; overexpresses HDM2 and HDMX; Figure 3B
[11] = tested on: osteosarcoma murine xenograft; conditions: ref Vassilev et al., 2004; cited from earlier work
HCT116 cells = test: Cell viability HCT116; format: cell-based; conditions: 0.3–20 µM, 24 h, CellTiter-Glo; HDM2- and HDMX-expressing colon cancer; Figure 3A–E
p53 (MCF-7 cells) = test: p53 western analysis, MCF-7; conditions: Nutlin-3 20 µM, 10 µM MG-132, 6 h, Figure 7A
p53 (JEG-3 cells) = test: p53 western analysis, JEG-3; format: cell-based, human; conditions: 20 µM, 6 h, Figure 4A

| SMILES | p53-HDMX complex in the presence of MG-132 ([1]; 0–20 µM SAH-p53-8 with 10 µM MG-132, 6 h, Figure 4B) | cell viability HCT116 deficient in p53 [2] | cell viability SJSA-1 (SJSA-1 cells) | cell viability A431 (A431 cells (R273H p53)) | cell viability JEG-3 (JEG-3 cells) | single-agent effect in synergy study (SJSA-X cells [3]) | inhibition of HDM2 (HDM2) | sensitivity of MCF-7 to Nutlin-3 (MCF-7 cells [4]) | p53-HDMX complex [5] | caspase-3/7 activation [6] | viability of normal human fibroblasts WS1 [7] | cell viability MCF-7 (MCF-7 cells [8]) | cell cycle arrest and apoptosis [9] | p53-HDMX complex ([1]; 20 µM, 6 h, anti-HDMX IP, Figure 4A) | cell viability SJSA-X (SJSA-X cells [10]) | anti-tumor efficacy [11] | cell viability HCT116 (HCT116 cells) | p53 levels (p53 (MCF-7 cells)) | p53 levels (p53 (JEG-3 cells)) |
| --- | --- | --- | --- | --- | --- | --- | --- | --- | --- | --- | --- | --- | --- | --- | --- | --- | --- | --- | --- |
| CC(C)C[C@@H](C=O)NC(=O)[C@H](CC(C)C)NC(=O)[C@H](CC(C)C)NC(=O)OCc1ccccc1 [MG-132] (Cbz-Leu-Leu-Leu-aldehyde) | increased p53-HDMX complex | – | – | – | – | – | – | – | – | – | – | – | – | – | – | – | – | – | – |
| COc1ccc(C2=N[C@@H](c3ccc(Cl)cc3)[C@@H](c3ccc(Cl)cc3)N2C(=O)N2CCNC(=O)C2)c(OC(C)C)c1 [Nutlin-3] | – | completely insensitive | very sensitive; also recorded: more cytotoxic than SAH-p53-8 in SJSA-1 cells | similarly unaffected | little to no response; also recorded: most resistant to Nutlin-3 | ineffective as a single agent | inhibits HDM2 | only modestly sensitive | appearance of the inhibitory p53-HDMX complex | little effect | no impact on the viability of normal human fibroblasts | modestly sensitive | triggers cell cycle arrest and apoptosis | p53-HDMX complexes were preserved, if not increased | little to no response | exhibits anti-tumor efficacy | modestly sensitive | can elevate p53 levels in MCF-7 cells | an increase in p53 levels was observed |
